Target: T1, cyt P450 1A1 (Homo sapiens, UniProt P04798)
T1 sequence (P04798 1-512): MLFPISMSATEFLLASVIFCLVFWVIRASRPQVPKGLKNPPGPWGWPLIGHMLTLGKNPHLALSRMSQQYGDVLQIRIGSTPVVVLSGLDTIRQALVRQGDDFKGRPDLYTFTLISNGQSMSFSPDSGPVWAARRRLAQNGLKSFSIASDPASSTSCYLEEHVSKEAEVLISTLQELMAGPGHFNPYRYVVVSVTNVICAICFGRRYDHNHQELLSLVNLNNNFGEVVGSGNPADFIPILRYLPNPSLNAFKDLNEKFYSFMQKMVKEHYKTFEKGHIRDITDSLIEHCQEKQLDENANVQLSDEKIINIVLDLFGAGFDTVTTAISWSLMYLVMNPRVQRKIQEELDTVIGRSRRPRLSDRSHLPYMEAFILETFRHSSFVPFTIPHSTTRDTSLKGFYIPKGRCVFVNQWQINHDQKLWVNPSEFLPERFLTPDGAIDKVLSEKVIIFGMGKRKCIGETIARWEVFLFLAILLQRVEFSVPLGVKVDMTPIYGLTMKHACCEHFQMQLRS
Assay type: biochemical

`COc1ccc(/C=C/c2cc(O)cc(O)c2)cc1O` [rhapontigenin] gave an IC50 of 0.032 ± 0.001 µM.

Source: article PMC3901045 (Lab on a chip, 2013)
